In one data set the target is T1, hMAO-A (Homo sapiens, UniProt P21397).
T1 sequence (P21397 1-527): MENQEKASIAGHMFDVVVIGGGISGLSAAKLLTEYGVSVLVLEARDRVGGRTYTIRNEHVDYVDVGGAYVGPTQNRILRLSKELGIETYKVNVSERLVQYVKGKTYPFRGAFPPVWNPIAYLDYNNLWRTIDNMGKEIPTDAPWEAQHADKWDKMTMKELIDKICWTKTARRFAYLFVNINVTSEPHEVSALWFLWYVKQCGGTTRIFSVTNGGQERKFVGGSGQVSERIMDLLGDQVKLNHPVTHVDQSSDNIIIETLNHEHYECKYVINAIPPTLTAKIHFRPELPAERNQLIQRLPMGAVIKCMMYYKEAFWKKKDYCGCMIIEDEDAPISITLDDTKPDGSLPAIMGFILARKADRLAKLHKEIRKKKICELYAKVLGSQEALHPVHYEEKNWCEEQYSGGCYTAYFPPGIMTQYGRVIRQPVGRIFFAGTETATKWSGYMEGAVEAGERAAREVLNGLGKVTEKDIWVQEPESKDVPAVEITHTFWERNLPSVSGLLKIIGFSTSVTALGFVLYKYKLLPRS
Briefly: biochemical. Conditions: read-out: hMAO-A (IC50); recombinant hMAO-A, p-tyramine substrate. As for the experimental part: (§1) The hMAO-A/B inhibition of all compounds was determined using the Amplex Red MAO assay kit.
(§2) Assays were performed following the general procedure previously described.[98] […] The specific fluorescence emission was calculated after subtracting the background activity, which was determined from wells containing all components except the hMAO isoforms, which were replaced with PBS.

The next data set addresses T2, hMAO-B (Homo sapiens, UniProt P27338).
T2 sequence (P27338 1-520): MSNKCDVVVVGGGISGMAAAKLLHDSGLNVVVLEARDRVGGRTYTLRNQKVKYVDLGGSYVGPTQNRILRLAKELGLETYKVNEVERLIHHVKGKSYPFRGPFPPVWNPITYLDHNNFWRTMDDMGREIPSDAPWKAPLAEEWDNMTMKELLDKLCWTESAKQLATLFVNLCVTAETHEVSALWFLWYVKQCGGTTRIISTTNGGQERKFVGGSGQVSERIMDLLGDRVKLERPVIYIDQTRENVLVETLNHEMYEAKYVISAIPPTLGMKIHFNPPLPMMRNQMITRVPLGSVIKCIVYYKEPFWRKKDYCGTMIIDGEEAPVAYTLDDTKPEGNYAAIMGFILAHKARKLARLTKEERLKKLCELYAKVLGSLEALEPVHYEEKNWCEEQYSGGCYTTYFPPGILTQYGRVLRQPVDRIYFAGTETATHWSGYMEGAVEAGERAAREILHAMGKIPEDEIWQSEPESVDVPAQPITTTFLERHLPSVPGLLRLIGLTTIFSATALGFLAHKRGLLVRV
Briefly: biochemical. Conditions: read-out: hMAO-B (IC50); recombinant hMAO-B, p-tyramine substrate. How it is done:
as §1, §2

Data set [1] relates to NRF2-ARE signaling pathway. In words: cells. It is filed as cell-based. Conditions: concentration required to double luciferase activity, AREc32 cells, 24 h.
The next data set in a line: in vitro. The class given is in vitro ADME.
The subject of a further data set is iNOS. In words: Western blotting of iNOS in hippocampal slices exposed to OA. The class given is cell-based, mouse. The following applies: hippocampal slices treated with OA. From the text:
As iNOS can be produced through the NF-κB (nuclear factor kappa-light-chain-enhancer of activated B cells) pathway, we analyzed the levels of p65, one of the components that form the NF-κB transcription factor family.[82] […] We also measured HO-1, an inducible enzyme transcribed by NRF2, known for its anti-inflammatory, antioxidant, and neuroprotective effects. […] NRF2 and NF-κB signaling pathways cooperate to maintain the physiological homeostasis of cellular redox status and to regulate the cellular response to stress and inflammation.[19],[83] […] This last mechanism could be related to our resveratrol-based MTDL 4e.
After acute treatment, the hippocampal slices were lysed in a cold AKT lysis buffer (137 mM NaCl, 20 mM NaF, 10% glycerol, 20 mM Tris–HCl, 1% Nonidet P-40, 1 μg/mL leupeptin, 1 mM phenylmethylsulfonylfluoride, 1 mM sodium pyrophosphate, and 1 mM Na3VO4, pH 7.5). The total protein in each sample was quantified using the Pierce BCA protein kit (Thermo Fisher). 20 μg of protein was resolved by sodium dodecyl sulfate polyacrylamide gel electrophoresis (SDS-PAGE) and transferred to Immobilon-P PVDF membranes (Millipore Corp.). […] The membranes were washed, incubated with ECL WB Kit (GE Healthcare, Amersham), and exposed using a ChemiDoc MP system (Bio-Rad Laboratories) for the visualization of the specific bands, which were then analyzed with Fiji software.
A general note: Immunoblotting shows a protein as a band on a membrane.

Some results are limits rather than exact numbers.

With `C#CCn1nc(/C=C/c2ccc(OC)cc2)oc1=O` [4e, 5-[(E)-2-(4-Methoxyphenyl)ethenyl]-3-(prop-2-yn-1-yl)-1,3,4-oxadiazol-2(3H)-one], the IC50 (as a rule, the concentration that gives 50% inhibition) at hMAO-A is over 50 µM; at hMAO-B, 8.05 ± 1.82 µM. Also, the “NRF2 (CD, μM)” value in data set [1] turned out to be 9.83 ± 0.6 µM. In “in vitro” (PAMPA, pH 7.4, class from PAMPA-BBB Pe, read-out: CNS-permeability prediction), the Papp at 240 min, 100 μg mL^–1 was over 4 ×10⁻⁶ cm/s. In “in vitro” (porcine brain lipid, PBS/EtOH (70:30), 240 min, 25 °C), the “PAMPA-BBB (Pe, 10^–6 cm s^–1)” value is 8.0 ± 0.5 10^–6 cm s^–1. In addition, the iNOS level entry with iNOS was “reduced to basal levels”.

The values are drawn from PMC8958504 (Journal of Medicinal Chemistry, 2022).
